The record followed here is PMC6222706, “Evaluation of the Antioxidant and Neuroprotectant Activities of New Asymmetrical 1,3-Diketones” (Molecules : A Journal of Synthetic Chemistry and Natural …, 2018).

The subject of experiment [1] is SH-SY5Y cells. As to the kind of experiment: Mitochondrial membrane potential (JC-1, microplate reader) in SH-SY5Y cells under H2O2. It is filed as cell-based, human. Particulars: SH-SY5Y exposed to 200 µM H2O2 for 24 h, no compound. The method, then: To know whether β-diketones 6b and 7b will protect the mitochondrial membrane from depolarization under oxidative stress conditions, MMP experiments were carried out with the cationic dye JC-1 (5,5′,6,6′-tetrachloro-1,1′,3,3′-tetraethylbenzimi-dazolylcarbocyanine iodide). JC-1 enters selectively into mitochondria and reversibly change color from red to green as the membrane potential decrease. In healthy cells, JC-1 forms red fluorescent J-aggregates while in apoptotic cells with low MMP, JC-1 remains as monomers with green fluorescence. The ratio of J-aggregates to J-monomers is an indication of healthy non-apoptotic cells.
The fluorescent dye 5,5′,6,6′-tetrachloro-1,1′,3,3′-tetraethylbenzimidazolylcarbocyanine iodide (JC-1) was used for measuring MMP [111]. A decrease in fluorescence intensity represents mitochondrial membrane depolarization. For fluorescence ratio detection under oxidative stress conditions, 96 well plates were seeded with 3 × 10^3 SH-SY5Y cells and after 24 h incubation they were treated with test compound and left out for 24 h. Then, cells were exposed to different H2O2 concentrations for 24 h. After the incubation period, cells were washed twice with Hanks buffer and then stained with 5 µM JC-1 in culture media in dark, in a CO2 incubator at 37 °C for 20 min. At the end of the dye incubation period, cells were washed three times with Hanks buffer and 200 µL of fresh buffer was added. Cells were analyzed with a Varioskan microplate reader. J-aggregates red fluorescence intensity was measured at 535 nm excitation and 595 nm emission wavelength, while excitation at 485 nm and emission 535 nm wavelength was used for J-monomers green fluorescence. Results were expressed as the ratio of fluorescence intensity of J-aggregates to J-monomers. […] JC-1 aggregates show red fluorescence (peak emission at 590 nm) measured in the FL2 channel. Thus, healthy non-apoptotic cells are detected in both FL1 and FL2 channels, while cells with disrupted mitochondrial function show fluorescence in FL1 channel but reduced FL2 intensity.

Experiment [2] concerns SH-SY5Y cells. Particulars: read-out: H2O2 lethal dose (EC50; LD50), 24 h incubation, cell viability 50% of the control. The method, then: To test our work hypothesis, neuroprotection studies were carried out with β-diketones 6b and 7b in the SH-SY5Y cell line under oxidative stress conditions.
The subject of experiment [3] is SH-SY5Y cells. As to the kind of experiment: Mitochondrial membrane potential by flow cytometry (JC-1) in SH-SY5Y cells under H2O2. To be noted: 400 µM H2O2, no compound. It is filed as cell-based, human. The method, then:
To confirm this MMP recovery results, flow cytometry experiments were carried out with compound 7b and SH-SY5Y cells. Cells were treated with 7b for 24 h and then were exposed to 400 µM H2O2 for 4 h. JC-1 was used as fluorescence indicator of MMP state. In flow cytometry studies of MMP, JC-1 is excited at 488 nm wavelength. Both JC-1 aggregates and monomers show green fluorescence (peak emission at 527 nm) measured in the FL1 channel. […] Thus, healthy non-apoptotic cells are detected in both FL1 and FL2 channels, while cells with disrupted mitochondrial function show fluorescence in FL1 channel but reduced FL2 intensity. […] From these flow cytometry experiments, we can confirm that after compound 7b treatment there is a significant MMP recovery in SH-SY5Y cells under oxidative stress pressure.
For MMP flow cytometry studies, 10^5 SH-SY5Y cells were seeded in 6 well plates. After 24 h, cells were treated with test compound and incubated for other 24 h. After the treatment period, cells were exposed to H2O2 for 4 h. Then, cells were washed twice with Hanks buffer and stained with 5 µM JC-1 in culture media in dark, in a CO2 incubator at 37 °C for 20 min. After the staining period, cells were washed three times with Hanks buffer, collected and resuspended in 500 µL culture media. Data were obtained and analyzed using an Accuri C6 flow cytometer (BD Biosciences, Ann Arbour, MI, USA). […]

Structures are written as SMILES. pEC50: −log10 of the molar value.

As to `OO` [Compound H2O2, hydrogen peroxide, reference compound], in the experiment with SH-SY5Y cells [1], the MMP reduction result is given as “about 62%”. Moreover, the pEC50 in the experiment with SH-SY5Y cells [2] is 3.70. Also, the “Increase in the FLA-1/FLA-2 ratio” value in the experiment on SH-SY5Y cells [3] is recorded as 2 fold.
